Numbers after ± are expanded uncertainties.
Assays:
[1] = for surface tension liquid-gas: Plate tensiometer; for mass density: 101.33 kPa, Liquid, Vibrating tube method
[2] = xn = mol fraction of the nth substance listed; conditions: 293.15 K; for mass density: 101 kPa, Liquid, Vibrating tube method

CCn1cc[n+](C)c1.COS(=O)(=O)[O-] [1-ethyl-3-methylimidazolium methylsulfate]
[1]
Conditions	mass density [kg/m3]	surface tension liquid-gas [mN/m]
283.15 K	1273.4 ± 20	53.54 ± 0.27
288.15 K	1270.1 ± 20	53.28 ± 0.27
293.15 K	1267 ± 20	52.99 ± 0.27
298.15 K	1262.9 ± 20	52.62 ± 0.26
303.15 K	1259.4 ± 20	52.32 ± 0.26
308.15 K	1255.8 ± 20	52.03 ± 0.26
313.15 K	1252.9 ± 20	51.72 ± 0.26
318.15 K	1249.9 ± 20	51.44 ± 0.26
323.15 K	1246.9 ± 20	51.07 ± 0.26
328.15 K	1243.5 ± 20	50.68 ± 0.25
333.15 K	1240.3 ± 20	50.41 ± 0.25

CCn1cc[n+](C)c1.COS(=O)(=O)[O-] [1-ethyl-3-methylimidazolium methylsulfate] + CCCCO
[2], Ring tensiometer
Conditions	surface tension liquid-gas [mN/m]
x1 = 0.032	23.96 ± 0.02
x1 = 0.071	24.3 ± 0.1
x1 = 0.1	24.39 ± 0.02
x1 = 0.2306	25.51 ± 0.04
x1 = 0.3	26.11 ± 0.05
x1 = 0.3996	27.13 ± 0.06
x1 = 0.4989	28.16 ± 0.08
x1 = 0.5993	28.58 ± 0.09
x1 = 0.695	28.61 ± 0.1
x1 = 0.7864	33.18 ± 0.13
x1 = 0.9206	39.12 ± 0.18
x1 = 0.9628	43.21 ± 0.21
x1 = 1	52.62 ± 0.26

[2]
Conditions	mass density [kg/m3]
x1 = 0.032	837.1 ± 20
x1 = 0.071	868.3 ± 20
x1 = 0.1	890.3 ± 20
x1 = 0.2306	978.5 ± 20
x1 = 0.3	1017.9 ± 20
x1 = 0.3996	1066.8 ± 20
x1 = 0.4989	1109.3 ± 20
x1 = 0.5993	1147.1 ± 20
x1 = 0.695	1179.6 ± 20
x1 = 0.7864	1207.2 ± 20
x1 = 0.9206	1243.6 ± 20
x1 = 1	1262.9 ± 20

CCn1cc[n+](C)c1.COS(=O)(=O)[O-] [1-ethyl-3-methylimidazolium methylsulfate] + CCO
[2], Plate tensiometer
Conditions	surface tension liquid-gas [mN/m]
x1 = 0.04	22.75 ± 0.06
x1 = 0.0597	23.23 ± 0.06
x1 = 0.08	23.62 ± 0.06
x1 = 0.0999	24.08 ± 0.07
x1 = 0.2	26.08 ± 0.08
x1 = 0.3	28.59 ± 0.09
x1 = 0.4	30.09 ± 0.11
x1 = 0.5	32.19 ± 0.12
x1 = 0.5998	34.22 ± 0.14
x1 = 0.6993	38.92 ± 0.17
x1 = 0.8005	44.18 ± 0.2
x1 = 0.9009	49.23 ± 0.23
x1 = 1	52.62 ± 0.26

[2]
Conditions	mass density [kg/m3]
x1 = 0.04	839.3 ± 20
x1 = 0.0597	862.9 ± 20
x1 = 0.08	885.6 ± 20
x1 = 0.0999	906.5 ± 20
x1 = 0.2	995.1 ± 20
x1 = 0.3	1064.8 ± 20
x1 = 0.4	1113.2 ± 20
x1 = 0.5	1150.2 ± 20
x1 = 0.5998	1179.8 ± 20
x1 = 0.6993	1205.1 ± 20
x1 = 0.8005	1227.1 ± 20
x1 = 0.9009	1246.4 ± 20
x1 = 1	1262.9 ± 20

CCn1cc[n+](C)c1.COS(=O)(=O)[O-] [1-ethyl-3-methylimidazolium methylsulfate] + CO
[2], Plate tensiometer
Conditions	surface tension liquid-gas [mN/m]
x1 = 0.05	24.19 ± 0.06
x1 = 0.08	25.56 ± 0.07
x1 = 0.0995	26.19 ± 0.07
x1 = 0.2001	30.12 ± 0.09
x1 = 0.3024	33.16 ± 0.11
x1 = 0.4012	37.21 ± 0.13
x1 = 0.4971	40.02 ± 0.15
x1 = 0.6	43.02 ± 0.17
x1 = 0.7004	45.59 ± 0.19
x1 = 0.8003	48.06 ± 0.22
x1 = 0.8971	50.63 ± 0.24
x1 = 0.9389	51.59 ± 0.25
x1 = 1	52.62 ± 0.26

[2]
Conditions	mass density [kg/m3]
x1 = 0.05	883.8 ± 20
x1 = 0.08	928.9 ± 20
x1 = 0.0995	957.2 ± 20
x1 = 0.2001	1061.5 ± 20
x1 = 0.3024	1122.2 ± 20
x1 = 0.4012	1161.3 ± 20
x1 = 0.4971	1189.3 ± 20
x1 = 0.6	1212.1 ± 20
x1 = 0.7004	1228 ± 20
x1 = 0.8003	1242.3 ± 20
x1 = 0.8971	1252.6 ± 20
x1 = 0.9389	1256.7 ± 20
x1 = 1	1262.9 ± 20

CCCCO [butan-1-ol] + CCn1cc[n+](C)c1.COS(=O)(=O)[O-]
Conditions	surface tension liquid-gas [mN/m]
[2], Ring tensiometer, x2 = 0	23.62 ± 0.01

Conditions	mass density [kg/m3]
[2], x2 = 0	809.6 ± 20

CCO [ethanol] + CCn1cc[n+](C)c1.COS(=O)(=O)[O-]
Conditions	surface tension liquid-gas [mN/m]
[2], Plate tensiometer, x2 = 0	22 ± 1

Conditions	mass density [kg/m3]
[2], x2 = 0	785.7 ± 20

CO [methanol] + CCn1cc[n+](C)c1.COS(=O)(=O)[O-]
Conditions	surface tension liquid-gas [mN/m]
[2], Plate tensiometer, x2 = 0	21.8 ± 0.1

Conditions	mass density [kg/m3]
[2], x2 = 0	791.2 ± 20
